Source: ChEMBL document CHEMBL4184156, “Repurposing Hsp90 inhibitors as antibiotics targeting histidine kinases” (Bioorg Med Chem Lett, 2017)
In brackets after ≈: the same amount, converted by molar mass. Activity calls are given as the source filed them. The rule behind the calls is not given here.

Tests used:
Escherichia coli = assay: Antibacterial activity against Escherichia coli DC2 after 24 hrs by broth dilution method; type: functional; details: DC2, 24 h
[1] = molecular target: T1, Histidine protein kinase DivJ (Caulobacter vibrioides (strain ATCC 19089 / CB15) (Caulobactercrescentus)) (UniProt Q03228); assay: Inhibition of recombinant Caulobacter vibrioides N-terminal His6-tagged DHp-catalytic domain DivJ (188 to 585 residues) autophosphorylation expressed in Escherichia coli BL21(DE3) at 500 uM preincubated for 10 mins followed by [gamma-32P]-ATP addition after 15 mins by phosphotransferase dot blot assay relative to control; set-up: scale not given: the % may be the effect or the level left
T1 sequence (whole entry): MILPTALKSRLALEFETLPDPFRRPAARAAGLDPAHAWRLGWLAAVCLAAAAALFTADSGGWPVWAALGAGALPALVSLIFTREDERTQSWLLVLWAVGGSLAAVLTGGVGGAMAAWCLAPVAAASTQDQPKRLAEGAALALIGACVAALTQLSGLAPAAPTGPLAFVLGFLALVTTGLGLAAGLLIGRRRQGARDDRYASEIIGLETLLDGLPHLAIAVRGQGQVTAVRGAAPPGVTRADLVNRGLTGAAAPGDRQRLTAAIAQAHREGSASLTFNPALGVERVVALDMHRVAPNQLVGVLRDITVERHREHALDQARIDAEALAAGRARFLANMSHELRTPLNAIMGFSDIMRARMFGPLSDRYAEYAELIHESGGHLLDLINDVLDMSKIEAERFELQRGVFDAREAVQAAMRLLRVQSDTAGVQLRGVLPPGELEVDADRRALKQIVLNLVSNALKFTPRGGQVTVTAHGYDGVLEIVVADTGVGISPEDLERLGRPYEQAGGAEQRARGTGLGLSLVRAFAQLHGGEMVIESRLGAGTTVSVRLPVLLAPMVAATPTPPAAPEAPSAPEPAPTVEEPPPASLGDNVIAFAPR

[2] = molecular target: T2, Cell cycle histidine kinase CckA (Caulobacter vibrioides) (UniProt Q9X688); assay: Binding affinity to recombinant Caulobacter vibrioides cell cycle histidine kinase CckA delta 3 mutant DHp domain (190 to 562 residues) expressed in Escherichia coli assessed as change in metlting temperature at 30 uM after 2 mins by SYPRO orange dye based DSF assay
T2 sequence (whole entry): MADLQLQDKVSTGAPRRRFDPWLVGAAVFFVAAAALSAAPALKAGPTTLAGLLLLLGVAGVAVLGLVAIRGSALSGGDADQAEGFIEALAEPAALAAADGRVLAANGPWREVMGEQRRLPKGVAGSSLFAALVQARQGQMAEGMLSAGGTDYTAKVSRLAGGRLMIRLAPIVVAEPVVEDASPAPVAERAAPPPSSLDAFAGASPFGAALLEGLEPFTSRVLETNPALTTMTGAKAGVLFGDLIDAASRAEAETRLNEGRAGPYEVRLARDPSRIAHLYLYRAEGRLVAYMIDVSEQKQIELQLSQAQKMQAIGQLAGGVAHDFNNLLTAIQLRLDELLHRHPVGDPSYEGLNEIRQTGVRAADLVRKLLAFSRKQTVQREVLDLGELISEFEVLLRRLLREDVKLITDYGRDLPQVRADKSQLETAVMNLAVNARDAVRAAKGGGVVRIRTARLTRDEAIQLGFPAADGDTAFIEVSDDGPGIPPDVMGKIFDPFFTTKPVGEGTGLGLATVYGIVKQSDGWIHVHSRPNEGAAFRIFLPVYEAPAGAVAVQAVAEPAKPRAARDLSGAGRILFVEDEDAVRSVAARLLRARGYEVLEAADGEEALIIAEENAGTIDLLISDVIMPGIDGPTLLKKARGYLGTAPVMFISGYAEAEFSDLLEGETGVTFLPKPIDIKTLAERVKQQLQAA

Caulobacter vibrioides = assay: Antibacterial activity against Caulobacter crescentus NA1000 after 24 hrs by broth dilution method; type: functional; details: NA1000, 24 h
[3] = molecular target: Cell cycle histidine kinase CckA (Caulobacter vibrioides, UniProt Q9X688); assay: Inhibition of recombinant Caulobacter vibrioides cell cycle histidine kinase CckA deltaTM mutant DHp domain (70 to 691 residues) expressed in Escherichia coli in presence of varying levels of ATP measured every 60 secs for 2 hrs by PK/LDH enzyme coupled assay
[4] = molecular target: T3, Virulence sensor histidine kinase PhoQ (Salmonella typhimurium (strain LT2 / SGSC1412 / ATCC 700720)) (UniProt P0DM80); assay: Inhibition of recombinant Salmonella typhimurium N-terminal His6-SUMO-tagged DHp-catalytic domain PhoQ (257 to 487 residues) autophosphorylation expressed in Escherichia coli BL21(DE3) at 500 uM preincubated for 10 mins followed by [gamma-32P]-ATP addition after 30 mins by phosphotransferase dot blot assay relative to control; set-up: scale not given: the % may be the effect or the level left; details: Salmonella enterica subsp. enterica serovar Typhimurium
T3 sequence (whole entry): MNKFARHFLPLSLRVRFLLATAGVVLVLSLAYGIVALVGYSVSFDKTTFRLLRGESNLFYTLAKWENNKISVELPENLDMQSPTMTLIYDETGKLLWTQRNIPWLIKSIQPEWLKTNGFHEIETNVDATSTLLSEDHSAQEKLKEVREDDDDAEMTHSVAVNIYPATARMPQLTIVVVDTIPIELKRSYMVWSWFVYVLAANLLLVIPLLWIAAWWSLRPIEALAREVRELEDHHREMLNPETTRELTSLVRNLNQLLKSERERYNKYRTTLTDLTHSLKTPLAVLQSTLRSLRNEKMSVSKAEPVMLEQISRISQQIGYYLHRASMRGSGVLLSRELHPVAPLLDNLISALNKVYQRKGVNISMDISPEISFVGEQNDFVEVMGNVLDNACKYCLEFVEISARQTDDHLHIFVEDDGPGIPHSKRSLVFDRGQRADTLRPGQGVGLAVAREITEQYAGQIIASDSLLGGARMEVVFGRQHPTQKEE

[5] = Hemolytic activity against sheep RBC at 0.5 mM after 30 mins relative to control; type: ADME, cell-based, Ovis aries, Erythrocyte; details: sheep red blood cells (erythrocytes), read-out: Activity
Bacillus subtilis = assay: Antibacterial activity against Bacillus subtilis YB886 after 24 hrs by broth dilution method; type: functional; details: YB886, 24 h
[6] = molecular target: T2, Cell cycle histidine kinase CckA (Caulobacter vibrioides); assay: Inhibition of recombinant Caulobacter vibrioides cell cycle histidine kinase CckA deltaTM mutant DHp domain (70 to 691 residues) expressed in Escherichia coli at 250 uM in presence of varying levels of ATP measured every 60 secs for 2 hrs by PK/LDH enzyme coupled assay relative to control
[7] = molecular target: T4, Virulence sensor histidine kinase PhoQ (Salmonella typhimurium (strain LT2 / SGSC1412 / ATCC 700720), UniProt P0DM80); assay: Inhibition of recombinant Salmonella typhimurium N-terminal His6-SUMO-tagged DHp-catalytic domain PhoQ (257 to 487 residues) autophosphorylation expressed in Escherichia coli BL21 (DE3) preincubated for 10 mins followed by [gamma-32P]-ATP addition after 30 mins by phosphotransferase dot blot assay; set-up: species or system Salmonella enterica subsp. enterica serovar Typhimurium
T4 sequence (P0DM80 whole entry): T3 sequence (whole entry)

[8] = molecular target: T3, Virulence sensor histidine kinase PhoQ (Salmonella typhimurium (strain LT2 / SGSC1412 / ATCC 700720)); assay: Inhibition of recombinant Salmonella typhimurium N-terminal His6-SUMO-tagged DHp-catalytic domain PhoQ (257 to 487 residues) autophosphorylation expressed in Escherichia coli BL21 (DE3) at 800 uM preincubated for 10 mins followed by [gamma-32P]-ATP addition after 30 mins by phosphotransferase dot blot assay relative to control; set-up: scale not given: the % may be the effect or the level left; details: Salmonella enterica subsp. enterica serovar Typhimurium
[9] = molecular target: T3, Virulence sensor histidine kinase PhoQ (Salmonella typhimurium (strain LT2 / SGSC1412 / ATCC 700720)); assay: Inhibition of recombinant Salmonella typhimurium N-terminal His6-SUMO-tagged PhoQ (257 to 487 residues) expressed in Escherichia coli BL21 (DE3) assessed as enzyme aggregation at 400 uM after 30 mins by native-PAGE analysis; details: Salmonella enterica subsp. enterica serovar Typhimurium

| Compound | MIC (Escherichia coli) | Activity [1] | ΔTm [2] | MIC (Caulobacter vibrioides) | IC50 [3] | Activity [4] | hemolysis at 0.5 h, 500 µM [5] | MIC (Bacillus subtilis) | inhibition [6] | IC50 [7] | Activity [8] | inhibition [9] |
| --- | --- | --- | --- | --- | --- | --- | --- | --- | --- | --- | --- | --- |
| COc1ccc(-c2c(-c3ccc(O)cc3O)n[nH]c2C)cc1 | 75 to 150 µM (≈ 22.2 to 44.4 µg/mL) | 117% | 2.5 °C | > 300 µM | 46 µM | 76% | 2% | > 300 µM | – | – | – | – |
| Cc1[nH]nc(-c2cc(Cl)c(O)cc2O)c1-c1ccccc1 | – | – | – | – | 17.5 µM | – | 1% | – | – | – | – | – |
| Nc1ncnc2c1ncn2[C@@H]1O[C@H](COP(=O)(O)OP(=O)(O)NP(=O)(O)O)[C@@H](O)[C@H]1O | – | – | 3.5 °C | – | – | – | – | – | – | – | – | – |
| COc1c(C)cnc(Cn2cnc3c(Cl)nc(N)nc32)c1C [BIIB021] | > 300 µM | 128% | 0.7 °C | > 300 µM | – | 87% | 6% | > 300 µM | 87% | – | – | – |
| Oc1cc(O)c(-c2n[nH]cc2-c2ccccc2)cc1Cl | 37.5 µM (≈ 10.8 µg/mL) | 92% | 3.5 °C | 150 to 225 µM (≈ 43 to 64.5 µg/mL) | 33.6 µM | 63% | 0% | 225 µM (≈ 64.5 µg/mL) | – | – | – | – |
| CC(C)NCCCn1c(Sc2cc3c(cc2I)OCO3)nc2c(N)ncnc21 [PU-H71] | 75 to 225 µM (≈ 38.4 to 115 µg/mL) | 122% | 0.5 °C | > 300 µM | – | 103% | 1% | > 300 µM | 61% | – | – | – |
| CCc1cc(-c2n[nH]c(C)c2-c2ccc3c(c2)OCCO3)c(O)cc1O | – | – | – | – | 28 to 30 µM | – | 14% | – | – | 261 µM | – | – |
| CN(C)c1cc2c(cc1Sc1nc3c(N)nccc3n1CCNCC(C)(C)C)OCO2 [CUDC-305] | 4.7 to 75 µM (≈ 2.08 to 33.2 µg/mL) | 96% | 0.4 °C | > 300 µM | – | 110% | 3% | > 300 µM | 79% | – | – | – |
| Oc1cc(O)c(-c2[nH]ncc2-c2ccc3c(c2)OCCO3)cc1Cl | 37.5 to 75 µM (≈ 12.9 to 25.9 µg/mL) | 117% | 3.3 °C | 150 to 225 µM (≈ 51.7 to 77.6 µg/mL) | – | 63% | – | 112 to 225 µM (≈ 38.8 to 77.6 µg/mL) | – | – | 48% | inactive |
| Cc1[nH]nc(-c2cc(Cl)c(O)cc2O)c1-c1ccc2c(c1)OCCO2 | 75 µM (≈ 26.9 µg/mL) | 113% | 5.3 °C | 225 µM (≈ 80.7 µg/mL) | 11.2 to 28 µM | 35% | 2% | 112 to 150 µM (≈ 40.4 to 53.8 µg/mL) | – | 270 µM | – | inactive |
| COc1ccc(-c2c[nH]nc2-c2cc(Cl)c(O)cc2O)cc1 | 37.5 µM (≈ 11.9 µg/mL) | 112% | 4.2 °C | 225 µM (≈ 71.3 µg/mL) | 32.7 µM | 62% | 0% | 150 µM (≈ 47.5 µg/mL) | – | – | – | – |
| Cc1n[nH]c(-c2cc(Cl)c(O)cc2O)c1-c1ccccc1 | 37.5 to 75 µM (≈ 11.3 to 22.6 µg/mL) | 115% | 4.5 °C | 225 µM (≈ 67.7 µg/mL) | – | 45% | – | 150 µM (≈ 45.1 µg/mL) | – | – | – | – |
| Oc1cc(O)c(-c2n[nH]cc2-c2ccc3c(c2)OCCO3)cc1Cl | – | – | – | – | 32.3 to 44 µM | – | 1% | – | – | – | – | – |
| CCNC(=O)c1noc(-c2cc(C(C)C)c(O)cc2O)c1-c1ccc(CN2CCOCC2)cc1 [LUMINESPIB] | 37.5 to 75 µM (≈ 17.5 to 34.9 µg/mL) | 109% | 1.8 °C | > 300 µM | 7.3 to 28 µM | 73% | 1% | > 300 µM | – | – | 56% | inactive |
| CCc1cc(-c2n[nH]c(C)c2-c2ccc(OC)cc2)c(O)cc1O | 75 µM (≈ 24.3 µg/mL) | 118% | 4.1 °C | 225 µM (≈ 73 µg/mL) | 18.6 µM | 36% | 15% | 112 µM (≈ 36.5 µg/mL) | – | – | – | – |
| COc1ccc(-c2c[nH]nc2-c2ccc(O)cc2O)cc1 | 37.5 to 112 µM (≈ 10.6 to 31.8 µg/mL) | 85% | 3.5 °C | > 300 µM | 56.9 µM | 87% | 3% | > 300 µM | – | – | – | – |
